Measured values taken from PubChem BioAssay (NCI).
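Compound exposure: 48 hours, 5 concentrations, 96-well plates. TGI is the concentration that stops growth completely.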

How the values were obtained:
Assay in all cases: inhibition of tumour cell growth, NCI panel, 48 h
786-0 renal = tested on: 786-0 renal
A549 NSCLC = tested on: A549 NSCLC
ACHN renal = tested on: ACHN renal
BT-549 breast = tested on: BT-549 breast
CAKI-1 renal = tested on: CAKI-1 renal
CCRF-CEM leukemia = tested on: CCRF-CEM leukemia
COLO 205 colon = tested on: COLO 205 colon
DU-145 prostate = tested on: DU-145 prostate
EKVX NSCLC = tested on: EKVX NSCLC
HCT-116 colon = tested on: HCT-116 colon
HCT-15 colon = tested on: HCT-15 colon
HL-60(TB) leukemia = tested on: HL-60(TB) leukemia
HOP-62 NSCLC = tested on: HOP-62 NSCLC
HOP-92 NSCLC = tested on: HOP-92 NSCLC
HS 578T breast = tested on: HS 578T breast
HT29 colon = tested on: HT29 colon
IGROV1 ovarian = tested on: IGROV1 ovarian
K-562 leukemia = tested on: K-562 leukemia
KM12 colon = tested on: KM12 colon
LOX IMVI melanoma = tested on: LOX IMVI melanoma
M14 melanoma = tested on: M14 melanoma
MALME-3M melanoma = tested on: MALME-3M melanoma
MCF7 breast = tested on: MCF7 breast
MDA-N = tested on: MDA-N
MOLT-4 leukemia = tested on: MOLT-4 leukemia
NCI-H226 lung = tested on: NCI-H226 lung
NCI-H23 lung = tested on: NCI-H23 lung
NCI-H460 lung = tested on: NCI-H460 lung
NCI-H522 lung = tested on: NCI-H522 lung
NCI/ADR-RES ovarian = tested on: NCI/ADR-RES ovarian
OVCAR-3 ovarian = tested on: OVCAR-3 ovarian
OVCAR-4 ovarian = tested on: OVCAR-4 ovarian
OVCAR-5 ovarian = tested on: OVCAR-5 ovarian
OVCAR-8 ovarian = tested on: OVCAR-8 ovarian
PC-3 prostate = tested on: PC-3 prostate
RPMI-8226 leukemia = tested on: RPMI-8226 leukemia
SF-268 CNS = tested on: SF-268 CNS
SF-295 CNS = tested on: SF-295 CNS
SK-MEL-5 melanoma = tested on: SK-MEL-5 melanoma
SK-OV-3 ovarian = tested on: SK-OV-3 ovarian
SN12C renal = tested on: SN12C renal
SNB-19 CNS = tested on: SNB-19 CNS
SNB-75 CNS = tested on: SNB-75 CNS
SR leukemia = tested on: SR leukemia
SW-620 colon = tested on: SW-620 colon
TK-10 renal = tested on: TK-10 renal
U251 CNS = tested on: U251 CNS
UACC-257 melanoma = tested on: UACC-257 melanoma
UO-31 renal = tested on: UO-31 renal
HCC-2998 colon = tested on: HCC-2998 colon
MDA-MB-435 = tested on: MDA-MB-435
RXF 393 renal = tested on: RXF 393 renal
SF-539 CNS = tested on: SF-539 CNS
SK-MEL-2 melanoma = tested on: SK-MEL-2 melanoma
SK-MEL-28 melanoma = tested on: SK-MEL-28 melanoma
T-47D breast = tested on: T-47D breast
UACC-62 melanoma = tested on: UACC-62 melanoma

C=C1CCC([N+](=O)[O-])[C@](C)(N=O)CC[C@@H]2C1CC2(C)C (stereo partly drawn)
TGI (786-0 renal): 42.6 µM
TGI (A549 NSCLC): 36 µM
TGI (ACHN renal): > 100 µM
TGI (BT-549 breast): 37.1 µM
TGI (CAKI-1 renal): > 100 µM
TGI (CCRF-CEM leukemia): > 100 µM
TGI (COLO 205 colon): 60.5 µM
TGI (DU-145 prostate): > 100 µM
TGI (EKVX NSCLC): 40.4 µM
TGI (HCT-116 colon): 32.1 µM
TGI (HCT-15 colon): 65.4 µM
TGI (HL-60(TB) leukemia): > 100 µM
TGI (HOP-62 NSCLC): > 100 µM
TGI (HOP-92 NSCLC): 44.9 µM
TGI (HS 578T breast): 39 µM
TGI (HT29 colon): 45.4 µM
TGI (IGROV1 ovarian): 59.1 µM
TGI (K-562 leukemia): 79.1 µM
TGI (KM12 colon): 65.5 µM
TGI (LOX IMVI melanoma): 41.7 µM
TGI (M14 melanoma): > 100 µM
TGI (MALME-3M melanoma): 49.5 µM
TGI (MCF7 breast): 39.6 µM
TGI (MDA-N): > 100 µM
TGI (MOLT-4 leukemia): > 100 µM
TGI (NCI-H226 lung): 30.9 µM
TGI (NCI-H23 lung): 33.3 µM
TGI (NCI-H460 lung): 39.6 µM
TGI (NCI-H522 lung): 49.1 µM
TGI (NCI/ADR-RES ovarian): 82 µM
TGI (OVCAR-3 ovarian): 56.3 µM
TGI (OVCAR-4 ovarian): 84.6 µM
TGI (OVCAR-5 ovarian): 36.1 µM
TGI (OVCAR-8 ovarian): 48 µM
TGI (PC-3 prostate): > 100 µM
TGI (RPMI-8226 leukemia): > 100 µM
TGI (SF-268 CNS): > 100 µM
TGI (SF-295 CNS): 37.6 µM
TGI (SK-MEL-5 melanoma): 28.6 µM
TGI (SK-OV-3 ovarian): > 100 µM
TGI (SN12C renal): > 100 µM
TGI (SNB-19 CNS): 77.9 µM
TGI (SNB-75 CNS): 45.3 µM
TGI (SR leukemia): > 100 µM
TGI (SW-620 colon): 47.2 µM
TGI (TK-10 renal): 76.1 µM
TGI (U251 CNS): 48.2 µM
TGI (UACC-257 melanoma): 46.2 µM
TGI (UO-31 renal): 31.7 µM

CC1(C)OCC=CCO1
TGI (A549 NSCLC): > 100 µM
TGI (ACHN renal): > 100 µM
TGI (BT-549 breast): > 100 µM
TGI (CAKI-1 renal): > 100 µM
TGI (CCRF-CEM leukemia): > 100 µM
TGI (COLO 205 colon): > 100 µM
TGI (DU-145 prostate): > 100 µM
TGI (EKVX NSCLC): > 100 µM
TGI (HCC-2998 colon): > 100 µM
TGI (HCT-116 colon): > 100 µM
TGI (HL-60(TB) leukemia): > 100 µM
TGI (HOP-62 NSCLC): > 100 µM
TGI (HOP-92 NSCLC): > 100 µM
TGI (HS 578T breast): > 100 µM
TGI (HT29 colon): > 100 µM
TGI (IGROV1 ovarian): > 100 µM
TGI (K-562 leukemia): > 100 µM
TGI (KM12 colon): > 100 µM
TGI (LOX IMVI melanoma): > 100 µM
TGI (M14 melanoma): > 100 µM
TGI (MALME-3M melanoma): > 100 µM
TGI (MCF7 breast): > 100 µM
TGI (MDA-MB-435): > 100 µM
TGI (MDA-N): > 100 µM
TGI (MOLT-4 leukemia): > 100 µM
TGI (NCI-H226 lung): > 100 µM
TGI (NCI-H23 lung): > 100 µM
TGI (NCI-H460 lung): > 100 µM
TGI (NCI-H522 lung): > 100 µM
TGI (NCI/ADR-RES ovarian): > 100 µM
TGI (OVCAR-3 ovarian): > 100 µM
TGI (OVCAR-4 ovarian): > 100 µM
TGI (OVCAR-5 ovarian): > 100 µM
TGI (OVCAR-8 ovarian): > 100 µM
TGI (PC-3 prostate): > 100 µM
TGI (RPMI-8226 leukemia): > 100 µM
TGI (RXF 393 renal): > 100 µM
TGI (SF-268 CNS): > 100 µM
TGI (SF-295 CNS): > 100 µM
TGI (SF-539 CNS): > 100 µM
TGI (SK-MEL-2 melanoma): > 100 µM
TGI (SK-MEL-28 melanoma): > 100 µM
TGI (SK-MEL-5 melanoma): > 100 µM
TGI (SK-OV-3 ovarian): > 100 µM
TGI (SN12C renal): > 100 µM
TGI (SNB-19 CNS): > 100 µM
TGI (SNB-75 CNS): > 100 µM
TGI (SW-620 colon): > 100 µM
TGI (T-47D breast): > 100 µM
TGI (TK-10 renal): > 100 µM
TGI (U251 CNS): > 100 µM
TGI (UACC-257 melanoma): > 100 µM
TGI (UACC-62 melanoma): > 100 µM
TGI (UO-31 renal): > 100 µM
